# Source: US5707990A, “2-substituted amino and thio alkyl benzoxazine antimicrobial agents” (Ortho Pharmaceutical Corporation, priority 1996, dated 1998)
# Target: T1, Kinase A and SpoOF (Bacillus subtilis, UniProt P16497)
# T1 construct: made in house; host or cells: recombinant E. coli
# T1 sequence (P16497 1-606): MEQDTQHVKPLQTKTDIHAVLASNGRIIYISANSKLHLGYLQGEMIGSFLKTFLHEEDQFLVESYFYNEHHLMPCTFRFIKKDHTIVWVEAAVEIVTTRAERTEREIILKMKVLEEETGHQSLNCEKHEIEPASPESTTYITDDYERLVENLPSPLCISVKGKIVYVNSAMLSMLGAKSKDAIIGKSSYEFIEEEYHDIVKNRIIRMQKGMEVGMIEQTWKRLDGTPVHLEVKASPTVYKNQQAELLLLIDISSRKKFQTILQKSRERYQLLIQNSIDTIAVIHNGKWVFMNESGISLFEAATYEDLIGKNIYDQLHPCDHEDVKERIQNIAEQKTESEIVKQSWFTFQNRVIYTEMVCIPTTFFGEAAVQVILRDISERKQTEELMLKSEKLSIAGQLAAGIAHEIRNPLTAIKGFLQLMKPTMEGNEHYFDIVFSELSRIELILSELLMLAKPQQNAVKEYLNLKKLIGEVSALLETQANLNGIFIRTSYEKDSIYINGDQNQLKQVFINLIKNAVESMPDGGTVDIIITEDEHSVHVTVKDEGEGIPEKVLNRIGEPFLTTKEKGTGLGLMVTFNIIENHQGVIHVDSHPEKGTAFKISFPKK
# Experiment: Autophosphorylation of Kinase A and Transphosphorylation of SpoOF Assay (HPK in vitro assay)
# Assay type: biochemical
# Conditions: [32P]ATP, gel/phosphoimager, inhibitor concentrations from 1 to 500 μM, IC50 of less than 1000 μM considered active
# Procedure: Autophosphorylation of Kinase A and Transphosphorylation of SpoOF Assay
# To study the effect of the compounds of the present invention on the signal transduction process in bacteria, the inhibiting effect of the compounds on the sporulation operon proteins Kinase A and SpoOF was examined. Specifically, the inhibition of autophosphorylation of Kinase A and the transphosphorylation of SpoOF was determined in the following assays. The SpoOF response regulator is the primary substrate for phosphorylation by the protein kinase, Kin A, involved in the sporulation process in bacteria. See D. Burbulys, K. A. Trach, J. A. Hoch, Cell, 64, 545-552 (1991 ). SpoOF and KinA were prepared from recombinant E. coli overexpressing the proteins (J. Cavanagh et al, Amino Adds, 6, 131-140 (1994) and references therein).
# The following stock reagents were either prepared and used promptly or stored at the indicated temperature:
# 8 X Salts: 2M KCl (5 mL), 1M MgCl2 ([…]), 1M CaCl2 ([…]), 10 mg/mL phenylmethylsulfonyl fluoride ([…]), 1M dithioreitol (50 mL), 0.25M Na2 EDTA (32 mL) and H2 O 3.82 mL (-20° C.)
# 5X Loading Dye: 0.5M TRIS-HCl-pH 6.8 (7.5 mL), 10% SDS (2 mL) 0.1% bromophenol blue (0.5 mL), 100% glycerol (3 mL) and 12.5M 2-mercaptoethanol (0.3 mL)
# 1-1.3 mg/mL KinA: 15 mM TRIS-HCl, pH 8.0, 6 mM KCl; 4 mM 2-mercaptoethanol;40% glycerol (-20° C.)
# 1 mg/mL SpoOF: 17.5 mM TRIS-HCl, pH 8.0; 0.7 mM KCl; 0.7 mM MgCl2; 0.7 mM CaCl2; 5 mM 2-mercaptoethanol; 30% Glycerol (-20° C.)
# 5% Stacking Gel: 40% 29:1 acrylamide:bis acrylamide (1.25 mL), 0.5M TRIS-HCl, pH 6.8 (2.5 mL), 10% SDS (0.1 mL), D-H2 O (6.15 mL) 10% ammonium persulfate (100 mL) and TEMED (25 mL)
# SDS Running Buffer: TRIS-BASE (3.02 g), glycine (14.4 g) SDS (1 g), D-H2 O (to 1 L)
# The reaction mixture was prepared from 8X Salts (87 μL), 1M TRIS, pH 8 (118 μL), 50% glycerol (63 μL), SpoOF (14.1 μL) and KinA (7.0 μL). Microcentrifuge tubes were charged with the reaction mixture (18.5 μL) and a 1.0 mM solution of the test compound in 5% DMSO (18.5 μL), and incubated for 15 min on ice. 100 mM ATP solution (3.0 μl, containing 625 μCi [^32 P]ATP) was added, and the mixture left for 10 minutes at room temperature. The reaction was quenched with 5X loading dye (10 μL per tube) and the samples were loaded on a prepared 5% Stacking Gel, or stored on dry ice until ready for use. The prepared wells were filled with SDS Running Buffer, samples were loaded into the wells, and 80 volts were applied to the gel until the dye front reached the bottom of the stacking gel. The voltage was then increased to 250 volts until electrophoresis was complete. Radioactive bands in the gel corresponding to phosphorylated KinA and SpoOF were imaged and quantitated with a phosphoimager.
# If either enzyme was inhibited (as evidenced by the absence of labelled protein in the developed gel), an IC50 was calculated by running the assay with a range of inhibitor concentrations from 1 to 500 μM. After electrophoresis of the reaction mixtures, percent inhibition was determined by measuring the concentration of radioactive phosphorus with a phosphoimager and calculating the values using a software program (BioRad Molecular Analyst). IC50 values of less than 1000 μM are considered active.
row,Structure (SMILES),IC50 [µM]
1,N=C(N)NCCC1Oc2ccccc2N(Cc2ccccc2Cl)C1=O (stereo not drawn) [Example 22],325
2,N=C(N)NCCC1Oc2cc([N+](=O)[O-])ccc2N(Cc2cccc(Cl)c2)C1=O (stereo not drawn) [Example 23],182
3,N=C(N)NCCC1Oc2ccc(C(F)(F)F)cc2N(Cc2cccc(Cl)c2)C1=O (stereo not drawn) [Example 18],80
4,Cc1ccc2c(c1)N(Cc1cccc(Cl)c1)C(=O)C(CCNC(=N)N)O2 (stereo not drawn) [Example 19],52
5,N=C(N)NCCC1Oc2cccnc2N(Cc2cccc(Cl)c2)C1=O (stereo not drawn) [Example 20],344
6,O=C1C(CCSC(=S)N2CCCC2)Oc2ccccc2N1Cc1ccccc1Cl (stereo not drawn) [Example 25],274
